Test results reported in patent publication US20240189387A1, “DOSING REGIMENS FOR HEMATOPOIETIC STEM CELL MOBILIZATION FOR STEM CELL TRANSPLANTS IN MULTIPLE MYELOMA PATIENTS” (Ensoma, Inc., priority 2021, published 2024).

Columns and labels:
[1] = Phase 1 trial: treatment emergent adverse events; details: Part A, n = 24
Excerpt: FIG. 1A depicts the treatments provided to patient cohorts enrolled in Part A and Part B of a Phase 1 clinical trial as well as measurable endpoints.
Patients were monitored for emergent adverse events.

CD34+ cells [2] = assay: Phase 1 trial Part D: apheresis collection yield; details: 2 h stagger after plerixafor
Description: (§1) The dose of MGTA-145 was one of 0.0075 mg/kg, 0.015 mg/kg, 0.03 mg/kg, 0.075 mg/kg, 0.15 mg/kg, or 0.3 mg/kg. […] The dose of MGTA-145 was one of 0.015 mg/kg, 0.03 mg/kg, 0.075 mg/kg, or 0.15 mg/kg. […] The dose of MGTA-145 was one of 0.03 mg/kg or 0.075 mg/kg.
The table documents the body weight of each subject, the total CD34+ cells that were obtained through the apheresis procedure, the normalized CD34+ cells/kg of body weight, and the percentage of CD34+ cells that were CD90+CD45RA−.
The table documents the total CD34+ cells that were obtained through the apheresis procedure, the normalized CD34+ cells/kg of body weight, and the percentage of CD34+ cells that were CD90+CD45RA−.

[3] = system: neutrophil and platelet engraftment; format: in vivo
MMP-9 = assay: Phase 1 trial: plasma MMP-9 and TIMP-1 (sandwich immunoassay); format: in vivo, human; details: MGTA-145 monotherapy, all six doses
Description: (§2) Additionally, blood samples were analyzed by multicolor flow cytometry to quantify changes in expression of neutrophil activation markers such as L-selectin, CD11b, CD18, and CD66. Additionally, matrix metalloproteinase 9 (MMP-9), a neutrophil protease believed to mediate mobilization in response to MGTA-145, as well as its cognate inhibitor, TIMP-1, were quantified in plasma samples collected at the same time points by sandwich immunoassay.

CD34+CD90+CD45RA− cells = assay: Phase 1 trial: mobilization of CD34+CD90+CD45RA− cells into peripheral blood (flow cytometry)
[4] = format: in vivo
neutrophils = assay: Phase 1 trial: mobilization of neutrophils (automated hematology analyzer); details: MGTA-145 monotherapy
Description: as §1
(§3) Mobilization of white blood cells (WBCs), neutrophils, lymphocytes, basophils, and eosinophils was quantified by automated hematology analyzer.

white blood cells (WBCs) = assay: Phase 1 trial: mobilization of white blood cells (automated hematology analyzer); details: MGTA-145 monotherapy
Description: as §1, §3

[5] = system: LT-HSC cells (Lin−c-Kit+Sca1+CD150+CD48−); assay: Mobilization in mice and primary/secondary transplantation at limit dilution; format: in vivo; details: compared to the other cohorts
Excerpt: Mice (CD45.1) were mobilized according to the scheme shown in FIG. 24 and mobilized cells transplanted into CD45.2 mice at limit dilution.

[6] = system: neutrophil activation markers (L-selectin, CD11b, CD18, CD66); assay: Phase 1 trial: neutrophil activation markers (flow cytometry); format: in vivo, human; details: MGTA-145 monotherapy
Description: as §2

CD34+ cells [7] = assay: Phase 1 trial: mobilization of CD34+ cells into peripheral blood (multicolor flow cytometry); details: for Percent ≥20/μL / Peak CD34+ (#/μL) Median: Part A
[8] = system: hematopoietic stem and progenitor cells; details: U.S. Pat. No. 6,080,398; cited from earlier work
CXCR2 = molecular target: T1, CXCR2 (Homo sapiens, UniProt P25025); assay: Phase 1 trial: CXCR2 expression on peripheral blood neutrophils; format: in vivo
T1 construct: endogenous in cells; host or cells: peripheral blood neutrophils of dosed subjects (in vivo)
T1 sequence (P25025 1-360): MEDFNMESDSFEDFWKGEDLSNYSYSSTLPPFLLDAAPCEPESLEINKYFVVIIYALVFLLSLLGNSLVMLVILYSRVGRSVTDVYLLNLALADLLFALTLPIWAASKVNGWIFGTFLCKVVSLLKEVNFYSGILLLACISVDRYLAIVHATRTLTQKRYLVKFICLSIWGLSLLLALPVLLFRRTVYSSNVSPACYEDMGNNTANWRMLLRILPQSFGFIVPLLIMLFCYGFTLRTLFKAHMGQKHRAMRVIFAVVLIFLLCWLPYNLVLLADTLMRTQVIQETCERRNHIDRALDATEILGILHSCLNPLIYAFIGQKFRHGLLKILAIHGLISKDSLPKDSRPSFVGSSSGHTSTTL

[9] = MGTA-145 monotherapy 0.03 mg/kg
[10] = MGTA-145 monotherapy, the other doses
[11] = higher doses (0.075, 0.15, 0.3 mg/kg), 2 hours post administration
[12] = lower doses (0.0075, 0.015, 0.03 mg/kg)

## MGTA-145: Gro-β T (SEQ ID NO: 2), truncated Gro-β with deletion of the first four N-terminal amino acids; CXCR2 agonist
[1]; MGTA-145 0.0075-0.3 mg/kg
  Subjects with any drug related TEAE: 19 (79.2) n (%)
[1]
  Back pain/Musculoskeletal pain: 19 (79.2) n (%)
CD34+ cells [2]; MGTA-145 0.03 mg/kg
  CD34+/kg Mean: 4.1 x10^6
  CD34+/kg Median: 4.3 x10^6
  CD90+/kg Mean (CD34+CD90+CD45RA− cells): 1.3 x10^6
  CD90+/kg Median (CD34+CD90+CD45RA− cells): 1.5 x10^6
  Total CD34+ Yield Median (range): 321 (239-500) x10^6
CD34+ cells [2]; MGTA-145 0.03 mg/kg, 0.03 mg/kg
  CD90+ (% of CD34+): 31%
CD34+ cells [2]; MGTA-145 […]
  CD90+/kg Mean (CD34+CD90+CD45RA− cells): 1.4 x10^6
  CD90+/kg Median (CD34+CD90+CD45RA− cells): 1.2 x10^6
CD34+ cells [2]; MGTA-145 […], […]
  CD90+ (% of CD34+): 37%
[3]; 14 patients
  engraftment at day 100 follow-up: durable engraftment
[3]; 18 transplanted patients
  engraftment after transplant: All patients have engrafted
  median time to platelet engraftment (platelets ≥20,000×10^6/L, no transfusion in 7 days): 17.5 days
  patients needing RBC transfusion: 17%
[3]; 18 transplanted patients, range 11-15
  median time to neutrophil engraftment: 12 days
MMP-9
  molar ratio of MMP-9:TIMP-1: rapid increase 30 minutes post-administration
  plasma levels of MMP-9: increased sharply within 30 minutes post-administration
CD34+CD90+CD45RA− cells; [9]
  fold increase of CD34+CD90+CD45RA− cells: ~8.3 fold
  peak concentration of CD34+CD90+CD45RA− cells: ~3 cells/μL
CD34+CD90+CD45RA− cells; MGTA-145 monotherapy, six doses
  time of peak CD34+CD90+CD45RA− mobilization post administration: 30 min
CD34+CD90+CD45RA− cells; [10]
  fold increase of CD34+CD90+CD45RA− cells: 2-3.5 fold
  peak concentration of CD34+CD90+CD45RA− cells: 1-1.6 cells/μL
[4]
  median severity of pain on a scale of 1-10: 8 (3-10)
  patients experiencing hyperhidrosis: 4%
  patients experiencing nausea: 8%
  patients experiencing thrombocytopenia: 8%
  patients experiencing vomiting (grade 2): 4%
  patients with TEAEs at least possibly related to MGTA-145: 60%
  patients with acute pain: 9 patients
[4]; 11 patients
  patients experiencing pain: 50%
[4]; 25 patients
  patients with acute onset transient bone pain with MGTA-145: 38%
  patients with pain (all grade 1): 44%
[4]; 25 patients, grade 1 n=14, grade 2 n=1
  patients with at least 1 treatment emergent AE with MGTA-145: 60%
[4]; 25 patients, range 3-28
  duration of acute onset transient bone pain: 7 min
[4]; initial cohort
  patients with at least 1 adverse event: 90%
  patients with grade 2 AEs (anemia, hypokalemia): 20%
  patients with grade 3 AEs (worsening of baseline grade 3 anemia; hypocalcemia): 20%
[4]; multiple myeloma patients
  tolerability: well tolerated
[4]; range 3-10
  onset of acute and transient bone pain after start of MGTA-145 infusion (median): about 5 minutes
[4]; range 3-28
  median duration of acute and transient bone pain: 7 min
neutrophils; [11]
  initial plateau of neutrophil mobilization: 5-8 ×10^3 cells/μL
neutrophils; [12]
  peak mobilization of neutrophils: 13-15 ×10^3 cells/μL
White blood cells (WBCs); [11]
  initial plateau of WBC mobilization: 6-10 ×10^3 cells/μL
White blood cells (WBCs); [12]
  peak mobilization of WBCs: 15-17 ×10^3 cells/μL
[5]
  engraftment rates, secondary transplantation: vastly improved engraftment rates
[6]; all doses except the highest (0.3 mg/kg)
  fold change relative to baseline of CD66: < 2 fold
[6]; all six doses
  fold change relative to baseline of CD11b and CD18: < 2 fold
  fold change relative to baseline of L-selectin: < 2 fold
CD34+ cells [7]; [9]
  fold increase of CD34+ cells: 7 fold
  peak concentration of CD34+ cells: ~10 cells/μL
CD34+ cells [7]; MGTA-145 monotherapy, across six doses 0.0075-0.3 mg/kg
  time of peak CD34+ mobilization post administration: about 30 minutes
CD34+ cells [7]; [10]
  fold increase of CD34+ cells: 2-3 fold
CD34+ cells [7]; MGTA-145 monotherapy, the other doses (0.0075, 0.015, 0.075, 0.15, 0.3 mg/kg)
  peak concentration of CD34+ cells: ~5 cells/μL
CD34+ cells [7]; MGTA-145 0.03 mg/kg
  Percent ≥20/μL: 0%
CD34+ cells [7]; MGTA-145 0.3 mg/kg
  Peak CD34+ (#/μL) Median: 3 #/μL
  Percent ≥20/μL: 0%
CD34+ cells [7]; MGTA-145 on Day 1, 0.03 mg/kg
  Peak CD34+ (#/μL) Median: 12 #/μL
[8]
  potency to induce hematopoietic stem and progenitor cell mobilization relative to Gro-β: superior to that of Gro-β by multiple orders of magnitude
CXCR2; MGTA-145 0.07 mg/kg, staggered dosing with plerixafor, two consecutive days
  CXCR2 expression recovery prior to the second dose: ~80 % of baseline
CXCR2; MGTA-145 monotherapy, followed by recovery over 24 hours
  CXCR2 on peripheral neutrophils: rapid downregulation
